Tests used:
[1] = test system: C6 rat glial tumor cell line; experiment: MTT cell viability assay on C6; format: cell-based; settings: 24 h incubation
From the text: (§1) 96-well plates were used for seeding cells. […] All compounds were run in three repetitions.

[2] = test system: HT29 colon cancer cell line; experiment: MTT cell viability assay on HT29; format: cell-based, human; settings: 24 h incubation
From the text: as §1

[3] = test system: MCF7 human breast adenocarcinoma cell line; experiment: MTT cell viability assay on MCF7; format: cell-based; settings: 24 h incubation
From the text: as §1

[4] = FRAP antioxidant assay; settings: trolox standard curve
Experimental: The FRAP method was used to determine the antioxidant power of compounds. This method, which determines the reducing power of compounds, was developed by Benzie and Strain.[48] Fe(III)–TPTZ complex is formed as a result of the reaction of Fe(III) with tripyridyltriazine (TPTZ), and this complex is reduced to the Fe(II)–TPTZ complex with the antioxidant in the environment. The color of this complex is dark blue and gives the maximum absorbance at 593 nm.[48] Incubation is performed for up to 30 min to complete the reaction, and the correct absorbance values were read. The FRAP values of the samples were calculated as “μmol trolox equiv/g sample” with the help of the standard curve obtained using methanol–trolox standard solutions (0; 0.2; 0.4; 0.6; 0.8; and 1.0 μmol/mL) which were used as the positive control.[49] […]

[5] = target: hCA I (Homo sapiens, UniProt P00915); experiment: CA esterase activity method, hCA I; format: biochemical; settings: Table S3; further: key: +: active; -: not effect
Sequence of hCA I (P00915 whole entry): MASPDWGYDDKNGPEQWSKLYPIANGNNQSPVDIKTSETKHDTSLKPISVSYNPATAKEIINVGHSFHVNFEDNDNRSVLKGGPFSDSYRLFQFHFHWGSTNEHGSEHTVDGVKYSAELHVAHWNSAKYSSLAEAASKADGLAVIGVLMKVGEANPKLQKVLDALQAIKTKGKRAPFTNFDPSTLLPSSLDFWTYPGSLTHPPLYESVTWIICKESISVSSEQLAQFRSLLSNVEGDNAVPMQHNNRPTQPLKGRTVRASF
From the text: (§2) The method used to spectrophotometrically detect the antiepileptic, antiglaucoma, and […] effects of the obtained compounds in vitro is the esterase activity method. This method relies on the esterase activity of CA for the hydrolysis of p-nitrophenyl acetate as a substrate, which is a part of the reaction mechanism involving p-nitrophenol or p-nitrophenolate.

[6] = target: hCA II (Homo sapiens, UniProt P00918); experiment: CA esterase activity method, hCA II; format: biochemical; settings: Table S3; further: key: +: active; -: not effect
From the text: as §2

[7] = test system: L929 mouse fibroblast cell line
Experimental: (§3) Human breast adenocarcinoma cell line (MCF7), rat glial tumor cell line (C6), healthy mouse fibroblast cell line (L929), and colon cancer (HT29) cell line were purchased from ATCC (American type culture collection) and studied.
(§4) The cytotoxic effects of all compounds by MTT analysis on L929, HT29, MCF7, and C6 cell lines were investigated. 96-well plates were used for seeding cells. Approximately 1 × 10^4 cells were seeded in each well. Cells were allowed to adhere for 24 h, and then the compounds were applied at different concentrations. All compounds were run in three repetitions. Wells with a maximum of 100 μM compounds were incubated for 24 h. Three wells without compounds treated with only DMSO (with total volume of % 0.5) were used as negative controls, and cisplatin was used as a positive control. […] After the MTT interaction, the FRAP wells were emptied, and DMSO solution was placed in them. The formazan crystals formed were dissolved with this solution, and the number of viable cells in each well was determined by color change.

[8] = test system: L929 mouse fibroblast cell line; experiment: MTT cell viability assay on L929; settings: read-out: IC50 L929; 24 h incubation, MTT
Experimental: as §3, §4

“2-(1H-Imidazol-1-yl)-1-(4-methoxyphenyl)ethenol [Compound 4c]” showed an IC50 [1] of 43.8 ± 5.83 µM, an IC50 [2] of 88.4 ± 15.7 µM and an IC50 [3] of 101 ± 14.5 µM. The FRAP [4] was 0.29 ± 0.05 μmol trolox equiv/g, the “Effect on hCA I isoenzyme activity” value [5] was “+” and the “Effect on hCA II isoenzyme activity” value [6] was “+”. For the same substance, the “viability on healthy cell line at maximum dose” value [7] was “at least 50%” and the IC50 [8] was 194 ± 12.2 µM.

Source: article PMC11097166, “Imidazole-Derived Alkyl and Aryl Ethers: Synthesis, Characterization, In Vitro Anticancer and Antioxidant Activities, Carbonic Anhydrase I–II Inhibition Properties, and In Silico Studies” (ACS Omega, 2024)
